Data reported in patent publication US20190030053A1, “COMPOSITION FOR INCREASING EXPRESSION OF PGC-1alpha” (BENEBIOSIS CO., LTD., priority 2016, published 2019).

Key:
[1] = system: PGC-1α and related genes; assay: Gene expression in brain and hippocampus of Huntington's disease models; format: in vivo, mouse; conditions: R6/2 mice, oral 0.1 mg/kg/day, 10 weeks
Description: In order to investigate the changes in gene expression and cognitive ability by the treatment with SL (3′-SL & 6′-SL) compositions in Huntington's brain disease model, 4-week-old mice were purchased from Central Lab Animal (Korea). Water was freely accessible, and a commercially available pellet feed (Dooyeul Biotech, Korea) was given for one week. At 5 weeks of age, the mice were divided into three groups (composed of eight mice for each group): Eight 5-week-old male c57/BL6 mice (normal mice; initial body weight, average 25.3±4.3 g) treated with a normal diet were used for a control group. […]
Sialyllactose or DW was orally administered daily. […] The dietary intake and body weight change were measured every 5 days. […]
The gene expression changes by the treatment with SL (3′-SL & 6′-SL) compositions were quantitatively compared in two main organs (brain and hippocampus) associated with bran diseases. RNA was extracted by TRIzol agent (Invitrogen). cDNA was synthesized by using RNA, which has been extracted as above and quantified, and a reverse transcription system (Promega, USA). The expression patterns of PGC-1α and related genes were measured by using pre-designed primers and probes (Applied Biosystems; PGC-1α, Mm00447181_m1, GAPDH, and Mm99999915_q1) for the synthesized cDNA and analysis targets (Fndc5, PGC-1α, Erra, UCP1, BDNF, SOD2, and GPX1). […]

[2] = system: ICH models; assay: Modified limb placing test (MLPT) in intracerebral hemorrhage (ICH) models; format: in vivo, rat; conditions: first day and third day after ICH induction; intraperitoneal
Description: In order to investigate the changes in ischemic volume and modified limb placing test (MLPT) score by treatment with SL (3′-SL & 6′-SL) compositions in stroke models, 4-week-old mice were purchased from Central Lab Animal (Korea). Water was freely accessible, and a commercially available pellet feed (Dooyeul Biotech, Korea) was given for one week. Stroke models involving temporary and permanent middle cerebral artery (MCA) occlusion and intracerebral hemorrhage (ICH) were fabricated using 6-week-old male Sprague-Dawley rats (weight, average 185.3±15.8 g) and male BALB/c mice weight, average 24.6±3.8 g). […] The model was suspended at 10 cm above a table, and the stretch of the forelimbs toward the table was scored (0 points for normal stretch and 1 point for abnormal fexion). […] The evaluation results for three tasks were scored in the following manner: 0 points for normal performance, 1 point for performance with a delay (at least 2 seconds) or incomplete performance, and 2 points for no performance. […]

| SMILES | expression levels of PGC-1α and related genes vs SL non-administration (Huntington's disease model) group [1] | MLPT test score vs control group (neurodegeneration inhibitory effects) [2] | expression levels of PGC-1α and related genes vs normal control group [1] |
| --- | --- | --- | --- |
| CC(=O)N[C@H]1[C@H]([C@H](O)[C@H](O)CO)O[C@@](O[C@H]2[C@@H](O)[C@@H](CO)O[C@@H](O[C@H]3[C@H](O)[C@@H](O)C(O)O[C@@H]3CO)[C@@H]2O)(C(=O)O)C[C@@H]1O (stereo partly drawn) [3′-SL, α-NeuNAc-(2→3)-β-D-Gal-(1→4)-D-Glc] | relatively low compared with 6′-SL | relatively low compared with 6′-SL |  |
| CC(=O)N[C@H]1[C@H]([C@H](O)[C@H](O)CO)O[C@@](OC[C@H]2O[C@@H](O[C@H]3[C@H](O)[C@@H](O)[C@H](O)O[C@@H]3CO)[C@H](O)[C@@H](O)[C@H]2O)(C(=O)O)C[C@@H]1O [6′-SL, α-NeuNAc-(2→6)-β-D-Gal-(1→4)-D-Glc] | very excellent | lower | somewhat lower |
